Test results taken from ChEMBL document CHEMBL1158736, “Cremastrine, a pyrrolizidine alkaloid from Cremastra appendiculata” (J Nat Prod, 2005).
pIC50: −log10 of the molar value.

What was measured:
[1] = target: T1, Muscarinic acetylcholine receptor M4 (Homo sapiens, UniProt P08173); assay: Displacement of [3H]NMS from human cloned muscarinic M4 receptor expressed in insect Sf9 cells
T1 sequence (P08173 whole entry): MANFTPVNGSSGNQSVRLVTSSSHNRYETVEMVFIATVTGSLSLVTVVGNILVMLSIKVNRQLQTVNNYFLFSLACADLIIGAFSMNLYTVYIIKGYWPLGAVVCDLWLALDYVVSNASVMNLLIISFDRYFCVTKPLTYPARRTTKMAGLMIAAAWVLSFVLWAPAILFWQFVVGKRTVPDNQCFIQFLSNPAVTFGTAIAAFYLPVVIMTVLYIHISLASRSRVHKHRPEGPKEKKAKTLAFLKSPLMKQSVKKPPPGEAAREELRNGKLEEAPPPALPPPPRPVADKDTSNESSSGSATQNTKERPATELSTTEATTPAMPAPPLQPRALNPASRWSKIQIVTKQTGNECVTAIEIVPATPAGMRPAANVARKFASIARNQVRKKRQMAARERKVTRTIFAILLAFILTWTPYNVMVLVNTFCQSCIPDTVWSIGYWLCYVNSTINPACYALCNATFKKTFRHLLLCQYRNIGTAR

[2] = target: T2, Muscarinic acetylcholine receptor M2 (Homo sapiens, UniProt P08172); assay: Displacement of [3H]NMS from human cloned muscarinic M2 receptor expressed in insect Sf9 cells
T2 sequence (P08172 whole entry): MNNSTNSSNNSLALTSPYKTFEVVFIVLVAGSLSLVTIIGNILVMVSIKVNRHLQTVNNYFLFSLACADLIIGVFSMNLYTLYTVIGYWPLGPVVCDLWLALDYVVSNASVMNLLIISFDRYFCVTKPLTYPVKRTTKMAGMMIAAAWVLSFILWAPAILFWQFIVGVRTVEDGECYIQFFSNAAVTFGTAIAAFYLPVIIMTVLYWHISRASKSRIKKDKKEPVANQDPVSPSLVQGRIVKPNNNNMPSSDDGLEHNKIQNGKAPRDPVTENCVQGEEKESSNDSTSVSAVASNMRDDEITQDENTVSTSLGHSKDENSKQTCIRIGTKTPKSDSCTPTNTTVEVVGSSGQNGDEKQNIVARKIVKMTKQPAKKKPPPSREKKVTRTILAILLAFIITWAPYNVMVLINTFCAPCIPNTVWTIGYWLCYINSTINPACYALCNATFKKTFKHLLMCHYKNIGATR

[3] = target: T3, Muscarinic acetylcholine receptor M5 (Homo sapiens, UniProt P08912); assay: Displacement of [3H]NMS from human cloned muscarinic M5 receptor expressed in insect Sf9 cells
T3 sequence (P08912 whole entry): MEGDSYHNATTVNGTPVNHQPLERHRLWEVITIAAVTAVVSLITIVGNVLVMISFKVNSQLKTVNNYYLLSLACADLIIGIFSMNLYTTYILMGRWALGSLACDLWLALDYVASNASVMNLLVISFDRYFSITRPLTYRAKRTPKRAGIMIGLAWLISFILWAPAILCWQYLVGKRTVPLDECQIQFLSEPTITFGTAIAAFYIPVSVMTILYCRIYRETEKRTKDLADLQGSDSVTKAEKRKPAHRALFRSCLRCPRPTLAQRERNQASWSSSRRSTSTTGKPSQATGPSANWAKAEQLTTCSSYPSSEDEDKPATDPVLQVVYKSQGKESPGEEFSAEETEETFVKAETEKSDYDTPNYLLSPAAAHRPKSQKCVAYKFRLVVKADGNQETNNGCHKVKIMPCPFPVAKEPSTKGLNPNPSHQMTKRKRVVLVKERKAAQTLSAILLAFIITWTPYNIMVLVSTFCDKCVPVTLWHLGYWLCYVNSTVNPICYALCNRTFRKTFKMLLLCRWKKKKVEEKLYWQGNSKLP

[4] = target: Muscarinic acetylcholine receptor M3 (Homo sapiens, UniProt P20309); assay: Displacement of [3H]NMS from human cloned muscarinic M3 receptor expressed in insect Sf9 cells
Muscarinic acetylcholine receptor M3, sequence (P20309 whole entry): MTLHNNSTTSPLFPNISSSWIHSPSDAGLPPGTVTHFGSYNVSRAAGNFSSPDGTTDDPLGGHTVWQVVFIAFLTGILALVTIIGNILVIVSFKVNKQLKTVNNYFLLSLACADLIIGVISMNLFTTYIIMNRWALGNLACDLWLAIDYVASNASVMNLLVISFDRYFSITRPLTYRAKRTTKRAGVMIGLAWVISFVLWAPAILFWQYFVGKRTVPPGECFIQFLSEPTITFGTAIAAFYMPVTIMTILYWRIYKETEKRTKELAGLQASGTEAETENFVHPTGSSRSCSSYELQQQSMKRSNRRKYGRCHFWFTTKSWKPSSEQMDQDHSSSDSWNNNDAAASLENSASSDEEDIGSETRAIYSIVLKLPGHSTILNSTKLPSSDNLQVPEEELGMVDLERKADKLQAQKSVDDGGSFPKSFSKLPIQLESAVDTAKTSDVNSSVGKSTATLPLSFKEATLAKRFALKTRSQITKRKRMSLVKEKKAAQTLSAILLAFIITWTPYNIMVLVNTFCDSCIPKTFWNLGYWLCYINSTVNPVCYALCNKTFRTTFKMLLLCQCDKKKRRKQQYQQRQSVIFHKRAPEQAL

[5] = target: T4, Muscarinic acetylcholine receptor M1 (Homo sapiens, UniProt P11229); assay: Displacement of [3H]NMS from human cloned muscarinic M1 receptor expressed in insect Sf9 cells
T4 sequence (P11229 whole entry): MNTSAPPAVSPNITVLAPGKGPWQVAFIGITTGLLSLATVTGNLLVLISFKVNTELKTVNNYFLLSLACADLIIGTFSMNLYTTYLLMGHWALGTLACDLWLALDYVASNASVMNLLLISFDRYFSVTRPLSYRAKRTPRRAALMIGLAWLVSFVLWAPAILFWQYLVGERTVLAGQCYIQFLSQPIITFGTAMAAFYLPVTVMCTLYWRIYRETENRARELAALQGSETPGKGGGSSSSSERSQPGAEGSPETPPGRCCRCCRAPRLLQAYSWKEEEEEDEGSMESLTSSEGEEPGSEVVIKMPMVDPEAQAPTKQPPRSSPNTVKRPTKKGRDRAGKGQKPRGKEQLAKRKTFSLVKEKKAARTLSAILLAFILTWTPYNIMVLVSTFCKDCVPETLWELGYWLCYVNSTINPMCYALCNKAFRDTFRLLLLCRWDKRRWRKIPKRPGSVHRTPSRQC

## CC[C@@H](C)[C@@H](O)C(=O)OC[C@H]1CCN2CCC[C@@H]12 [CREMASTRINE]
[1]
  pIC50: 6.30
[2]
  pIC50: < 5.26
[3]
  pIC50: 5.91
[4]
  pIC50: 6.90
[5]
  pIC50: 6.30
